These are literature values, as cited in patent US20090092657A1, “Amino acid combinant omega oil aphrodisiac” (priority 2007, published 2009).

For series [1] the following is noted: for erection after injection: injected directly into the corpus cavernosum using a hypodermic needle; for duration of erection: intracavernosal injection, appropriate dose.
For series [2] the following is noted: 1989 outbreak traced to L-tryptophan supplied by Showa Denko KK.
For series [3] the following is noted: buccal administration of 100 I.U. three times a day for 14 days.

For the molecule `Cc1ccc(N(CC2=NCCN2)c2cccc(O)c2)cc1` [phentolamine], in series [1], the erection after injection result is recorded as “caused erection”. Turning to `N[C@@H](Cc1c[nH]c2ccccc12)C(=O)O` [L-tryptophan], in series [2], the “cases of eosinophilia-myalgia syndrome (EMS) in the outbreak” value is given as 1500 cases and the “deaths in the EMS outbreak” value was “at least 37 deaths”. For `CN(C)CCCN1c2ccccc2CCc2ccccc21` [imipramine], in series [1], the erection after injection result is “caused erection”.

In the case of `COc1ccc(Cc2nccc3cc(OC)c(OC)cc23)cc1OC` [papaverine], in series [1], the erection after injection result was “caused erection” and the duration of erection entry was “unrelenting erection lasting for hours”. Regarding `CC(COc1ccccc1)N(CCCl)Cc1ccccc1` (centres unmarked) [phenoxybenzamine], in series [1], the erection after injection result is “caused erection” and the duration of erection result was “unrelenting erection lasting for hours”. As to `CC(=O)Oc1cc(C(C)C)c(OCCN(C)C)cc1C` [thymoxamine], the erection after injection entry in series [1] is “caused erection”.

As for `CCN(CC)CCOC(=O)C(Cc1cccc2ccccc12)CC1CCCO1` (mixture of isomers) [naftidrofuryl], the erection after injection result in series [1] is on record as “caused erection”.

Turning to `CC[C@H](C)[C@@H]1NC(=O)[C@H](Cc2ccc(O)cc2)NC(=O)[C@@H](N)CSSC[C@@H](C(=O)N2CCC[C@H]2C(=O)N[C@@H](CC(C)C)C(=O)NCC(N)=O)NC(=O)[C@H](CC(N)=O)NC(=O)[C@H](CCC(N)=O)NC1=O` [oxytocin], in series [3], the “improvement of impotentia erectionis, patients improved of patients treated” value was 12 of the 16.
